Patent US8329675B2, “Inhibitors of fatty acid amide hydrolase” (Infinity Pharmaceuticals, Inc., priority 2006, dated 2012)

Molecular target: T1, rat FAAH (Rattus norvegicus, UniProt P97612)
T1 construct: Five rat livers are homogenized in five fold volume with ice cold Tris; from tissue; host or cells: rat liver; 40,000 g membrane pellet solubilised in 1% Triton X-100
T1 sequence (P97612 1-579): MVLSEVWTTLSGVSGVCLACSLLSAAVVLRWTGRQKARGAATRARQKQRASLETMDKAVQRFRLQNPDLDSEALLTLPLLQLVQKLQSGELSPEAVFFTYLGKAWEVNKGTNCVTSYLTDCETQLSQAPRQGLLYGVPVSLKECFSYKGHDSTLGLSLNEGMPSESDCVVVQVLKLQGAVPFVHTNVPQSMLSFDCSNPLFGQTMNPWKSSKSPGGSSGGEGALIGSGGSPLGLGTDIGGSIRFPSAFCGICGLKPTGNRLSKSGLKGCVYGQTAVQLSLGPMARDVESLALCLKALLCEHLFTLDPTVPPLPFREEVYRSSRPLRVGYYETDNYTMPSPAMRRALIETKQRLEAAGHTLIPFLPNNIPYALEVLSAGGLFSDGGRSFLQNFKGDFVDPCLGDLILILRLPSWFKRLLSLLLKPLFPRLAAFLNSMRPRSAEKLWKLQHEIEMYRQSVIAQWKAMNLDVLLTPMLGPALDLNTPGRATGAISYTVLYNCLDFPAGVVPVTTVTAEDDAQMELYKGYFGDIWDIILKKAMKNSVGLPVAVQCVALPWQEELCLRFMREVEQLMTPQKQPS
Assay: Rat FAAH biochemical inhibition assay (AMC arachidonoyl amide fluorescence)
Description: The following assays may be used to determine the inhibition of FAAH by the compounds of the present invention: (1) a fluorescence-based assay for fatty acid amide hydrolase compatible with high-throughput screening as described in Manjunath et al., Analytical Biochemistry (2005) 343:143-151; and (2) a high-throughput screening for the discovery of inhibitors of fatty acid amide hydrolase using a microsome-based fluorescent assay. Wang et al., Biomolecular Screening (2006) 1-9.
Rat FAAH Preparation: Five rat livers are homogenized in five fold volume with ice cold Tris (20 mM pH 8.0) and 0.32 M Sucrose solution via an Ultra Turrax T25 homogenizer. All subsequent preparation steps are carried out at 4° C. The homogenate is centrifuged at 6000 g, for 20 minutes and the pellet, containing nuclear debris and mitochondria is discarded. The supernatant is centrifuged at 40,000 g for 30 minutes. […]
Rat FAAH Biochemical Inhibition Assay; Materials and methods: Rat FAAH biochemical assays are carried out in a 96 well flat bottom black non-treated polystyrene plates (Corning Costar Catalogue #3915). […] FAAH substrate—AMC Arachidonoyl Amide (Cayman Chemicals Company, Catalogue #10005098) The reaction is read in an Envision microtiter plate reader [Excitation filter 355 nm (40 nm bandpass); Emmision filter 460 nm (25 nm bandpass)]. The raw fluorescence is plotted on the y axis and the inhibitor concentration on the x axis to give a dose response inhibition curve. […]
Rat FAAH Biochemical Inhibition Assay; Experimental Protocol: The principle of this assay is the hydrolysis of AMC-Arichodonoyl, a fluorescent analogue of Anandamide, which results in the formation of Arachidonic acid and AMC. The formation of AMC results in an increase in fluorescence (see, for example, Manjunath et al., Analytical Biochemistry (2005) 343:143-151; and Wang et al., Bimolecular Screening (2006) 1-9).
A 0.49 mg/ml Rat liver FAAH solution is made up in FAAH reaction buffer, and 78 ul pipetted into a 96 well plate. […] The microtiter plate is read in the envision plate reader. […]

Row | Ki (Table 1, rat FAAH (asterisk)) [µM] | Ki (Table 2, rat FAAH (asterisk)) [µM] | SMILES
1 | 0.01 to 1 |  | OB(O)c1cc2ccccc2s1 [Compound I-127]
2 | 0.01 to 1 |  | CCCCCCOc1ccc(B(O)O)cc1 [Compound I-130]
3 |  | 0.01 to 1 | CCCCOc1cccc(B(O)O)c1 [II-315]
